Here are results for 18 compounds from patent US9376420B2 (YUHAN CORPORATION, priority 2012, dated 2016).

Molecules are shown by their SMILES.

For this assay, the target named is T1, human LXRβ (Homo sapiens, UniProt P55055).
T1 construct: expressed in transfected cells; host or cells: HEK293 cells (ATCC CRL-1573), transient transfection with pFA-hLXRβ/GAL4 and pUAS
T1 sequence (P55055 222-460 limits assumed): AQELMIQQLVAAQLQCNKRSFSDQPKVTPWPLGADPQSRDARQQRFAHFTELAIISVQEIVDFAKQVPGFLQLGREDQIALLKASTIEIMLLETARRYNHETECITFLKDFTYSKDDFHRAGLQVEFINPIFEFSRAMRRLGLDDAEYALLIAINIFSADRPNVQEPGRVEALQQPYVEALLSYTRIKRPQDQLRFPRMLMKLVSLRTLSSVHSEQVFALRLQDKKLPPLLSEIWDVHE
Kind of assay: Assay for Transcriptional Activity of LXRβ (GAL4-hLXRβ LBD luciferase reporter, transient transfection). Type of assay: cell-based. The conditions noted are these: HEK293 cells transfected with pFA-hLXRβ/GAL4 and pUAS, 24 hours; for Emax: fold value in comparison with the control (DMSO-treated group); for EC50: increase of transcriptional activity of LXRβ, average of three independent tests. The method, boiled down:
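EC50 values, averaged over three independent runs, come from a four-parameter fit of 9-point half-log curves spanning 0.01–50 μM. Luciferase output was read in lysed HEK293 cells 24 h after dosing at 37 °C, following transient transfection with a GAL4-human LXRβ LBD fusion plus GAL4-responsive reporter.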

The compound `CN(C)S(=O)(=O)N1CC=C(c2ccc(C3CC(C(O)(C(F)(F)F)C(F)(F)F)=NN3c3ccccc3Cl)cc2)CC1` (centres unmarked) [Example 305, 1-(2-chloro-phenyl)-5-{4-[1-dimethylsulfamoyl-1,2,3,6-tetrahydropyridin-4-yl]-phenyl}-3-[di-(trifluoromethyl)-hydroxy-methyl]-4,5-dihydro-1H-pyrazole] showed an Emax of 66 fold and an EC50 of 304 nM.

Consider `Cl.OC(C1=NN(c2ccccc2Cl)C(c2ccc(C3=CCNCC3)s2)C1)(C(F)(F)F)C(F)(F)F` (centres unmarked) [Example 417, 1-(2-chloro-phenyl)-5-[5-(1,2,3,6-tetrahydropyridin-4-yl)-thiophen-2-yl]-3-[di-(trifluoromethyl)-hydroxy-methyl]-4,5-dihydro-1H-pyrazole hydrochloride], for which the Emax amounted to 58 fold and the EC50 is 1030 nM.

Compound `OC(C1=NN(c2ccccc2Cl)C(c2ccc(-c3ccc(F)c(Cl)c3)cc2)C1)(C(F)(F)F)C(F)(F)F` (centres unmarked) [Example 256, 5-(3′-chloro-4′-fluoro-biphenyl-4-yl)-1-(2-chloro-phenyl)-3-[di-(trifluoromethyl)-hydroxy-methyl]-4,5-dihydro-1H-pyrazole] gave an Emax of 51 fold and an EC50 of 729 nM.

For the compound `Cc1ccccc1-c1ccc(C2CC(C(O)(C(F)(F)F)C(F)(F)F)=NN2c2ccc(F)cc2F)cc1` (centres unmarked) [Example 371, 1-(2,4-difluoro-phenyl)-5-(2′-methyl-biphenyl-4-yl)-3-[di-(trifluoromethyl)-hydroxy-methyl]-4,5-dihydro-1H-pyrazole], the Emax was 34 fold and the EC50 came out at 636 nM.

For the compound `CC(C)S(=O)(=O)N1CCN(c2ccc(C3CC(C(O)(C(F)(F)F)C(F)(F)F)=NN3c3ccccc3Cl)cc2)CC1` (centres unmarked) [Example 314, 1-(2-chloro-phenyl)-5-[4-(4-isopropylsulfonyl-piperazin-1-yl)-phenyl]-3-[di-(trifluoromethyl)-hydroxy-methyl]-4,5-dihydro-1H-pyrazole], the Emax was found to be 59 fold and the EC50 worked out at 883 nM.

`CSc1cccc(-c2ccc(C3CC(C(O)(C(F)(F)F)C(F)(F)F)=NN3c3ccccc3Cl)s2)c1` (centres unmarked) [Example 414, 1-(2-chloro-phenyl)-5-{5-[3-(methylsulfanyl)-phenyl]-thiophen-2-yl}-3-[di-(trifluoromethyl)-hydroxy-methyl]-4,5-dihydro-1H-pyrazole] gave an Emax of 125 fold and an EC50 of 193 nM.

With `CS(=O)(=O)N1CCN(c2ccc(C3CC(C(O)(C(F)(F)F)C(F)(F)F)=NN3c3ccccc3Cl)cn2)CC1` (centres unmarked) [Example 360, 1-(2-chloro-phenyl)-5-[6-(4-methanesulfonyl-piperazin-1-yl)-pyridin-3-yl]-3-[di-(trifluoromethyl)-hydroxy-methyl]-4,5-dihydro-1H-pyrazole], the Emax was found to be 45 fold and a half-maximal response (EC50) required 10200 nM.

In turn, `CS(=O)(=O)c1ccc(-c2cccc(C3CC(C(F)(F)C(F)(F)F)=NN3c3ccc(F)cc3F)c2)cc1C#N` (centres unmarked) [Example 70, 5-[3′-cyano-4′-(methanesulfonyl)-biphenyl-3-yl]-1-(2,4-difluoro-phenyl)-3-pentafluoroethyl-4,5-dihydro-1H-pyrazole] displayed an Emax of 62 fold and an EC50 of 466 nM.

Consider `CC(C)(C)OC(=O)N1CCN(c2ccc(C3CC(C(O)(C(F)(F)F)C(F)(F)F)=NN3c3ccc(F)cc3F)cc2)CC1` (centres unmarked) [Example 404, 1-(2,4-difluoro-phenyl)-5-[4-(4-BOC-piperazin-1-yl)-phenyl]-3-[di-(trifluoromethyl)-hydroxy-methyl]-4,5-dihydro-1H-pyrazole], for which the Emax is 15 fold and the EC50 worked out at 5270 nM.

The compound `CS(=O)(=O)N1CCN(c2ccc(F)c(C3CC(C(F)(F)C(F)(F)F)=NN3c3ccc(F)cc3F)c2)CC1` (centres unmarked) [Example 145, 1-(2,4-difluoro)-5-[2-fluoro-5-(4-methanesulfonyl-piperazin-1-yl)-phenyl]-3-pentafluoroethyl-4,5-dihydro-1H-pyrazole] returned an Emax of 107 fold and an EC50 of 885 nM.

As for `CS(=O)(=O)c1cccc(-c2ccc(C3CC(C(O)(C(F)(F)F)C(F)(F)F)=NN3c3ccc(F)cc3F)cc2)c1` (centres unmarked) [Example 413, 1-(2,4-difluoro-phenyl)-5-[3′-methanesulfonyl-biphenyl-4-yl]-3-[di-(trifluoromethyl)-hydroxy-methyl]-4,5-dihydro-1H-pyrazole], the Emax is recorded as 49 fold and it took 156 nM to reach a half-maximal effect (EC50).

Consider `CS(=O)(=O)N1CCN(c2ccc(C3CC(C(O)(C(F)(F)F)C(F)(F)F)=NN3c3ccccc3Cl)cc2)CC1` (centres unmarked) [Example 312, 1-(2-chloro-phenyl)-5-[4-(4-methanesulfonyl-piperazin-1-yl)-phenyl]-3-[di-(trifluoromethyl)-hydroxy-methyl]-4,5-dihydro-1H-pyrazole], for which the Emax turned out to be 46 fold and the EC50 stood at 2540 nM.

In the case of `OC(C1=NN(c2ccc(F)cc2F)C(c2ccc(-c3ccc(C(F)(F)F)nc3)cc2)C1)(C(F)(F)F)C(F)(F)F` (centres unmarked) [Example 377, 1-(2,4-difluoro-phenyl)-5-[4-(6-trifluoromethyl-pyridin-3-yl)-phenyl]-3-[di-(trifluoromethyl)-hydroxy-methyl]-4,5-dihydro-1H-pyrazole], the Emax is on record as 15 fold and the EC50 worked out at 890 nM.

`OC(C1=NN(c2ccccc2Cl)C(c2ccc(-c3ccc(C(F)(F)F)cc3)cc2)C1)(C(F)(F)F)C(F)(F)F` (centres unmarked) [Example 247, 1-(2-chloro-phenyl)-5-[4′-(trifluoromethyl)-biphenyl-4-yl]-3-[di-(trifluoromethyl)-hydroxy-methyl]-4,5-dihydro-1H-pyrazole] came in with an Emax of 33 fold and an EC50 of 2030 nM.

`CNCCCS(=O)(=O)c1cccc(-c2ccc(C3CC(C(O)(C(F)(F)F)C(F)(F)F)=NN3c3ccc(F)cc3F)cc2)c1` (centres unmarked) [Example 412, 1-(2,4-difluoro-phenyl)-5-{3′-[3-(methyl-amino)-propane-1-sulfonyl]-biphenyl-4-yl}-3-[di-(trifluoromethyl)-hydroxy-methyl]-4,5-dihydro-1H-pyrazole] showed an Emax of 53 fold and a 50% effective concentration (EC50) of 727 nM.

`COc1ccc(-c2cccc(C3CC(C(F)(F)C(F)(F)F)=NN3c3ccccc3Cl)c2)cc1OC` (centres unmarked) [Example 112, 1-(2-chloro-phenyl)-5-(3′,4′-dimethoxy-biphenyl-3-yl)-3-pentafluoroethyl-4,5-dihydro-1H-pyrazole] displayed an Emax of 57 fold and an EC50 of 8520 nM.

Take `CS(=O)(=O)c1cccc(-c2ccc(C3CC(C(O)(C(F)(F)F)C(F)(F)F)=NN3c3ccccc3Cl)s2)c1` (centres unmarked) [Example 419, 1-(2-chloro-phenyl)-5-{5-[3-(methylsulfonyl)-phenyl]-thiophen-2-yl}-3-[di-(trifluoromethyl)-hydroxy-methyl]-4,5-dihydro-1H-pyrazole]: the Emax was 82 fold.

`O=C(Cc1ccccc1)N1CC=C(c2cccc(C3CC(C(O)(C(F)(F)F)C(F)(F)F)=NN3c3ccccc3Cl)c2)CC1` (centres unmarked) [Example 236, 1-(2-chloro-phenyl)-5-[3-(1-phenylacetyl-1,2,3,6-tetrahydropyridin-4-yl)-phenyl]-3-[di-(trifluoromethyl)-hydroxy-methyl]-4,5-dihydro-1H-pyrazole] returned an Emax of 71 fold and an EC50 of 49 nM.
